Reference: patent US10399971B2, “Compound for treating or preventing hyperuricemia or gout” (JIANGSU ATOM BIOSCIENCE AND PHARMACEUTICAL CO., LTD., priority 2015, dated 2019)

Assays:
hURAT1 = target: T1, hURAT1 (Homo sapiens, UniProt Q96S37); assay: Inhibition assay of uric acid transport in HEK293-hURAT1 transfection cell line; assay type: cell-based; details: 500 nM; HEK293-hURAT1 transfection cell line; 14C-uric acid; average of three tests; 0.5 µM
T1 sequence (Q96S37 1-553): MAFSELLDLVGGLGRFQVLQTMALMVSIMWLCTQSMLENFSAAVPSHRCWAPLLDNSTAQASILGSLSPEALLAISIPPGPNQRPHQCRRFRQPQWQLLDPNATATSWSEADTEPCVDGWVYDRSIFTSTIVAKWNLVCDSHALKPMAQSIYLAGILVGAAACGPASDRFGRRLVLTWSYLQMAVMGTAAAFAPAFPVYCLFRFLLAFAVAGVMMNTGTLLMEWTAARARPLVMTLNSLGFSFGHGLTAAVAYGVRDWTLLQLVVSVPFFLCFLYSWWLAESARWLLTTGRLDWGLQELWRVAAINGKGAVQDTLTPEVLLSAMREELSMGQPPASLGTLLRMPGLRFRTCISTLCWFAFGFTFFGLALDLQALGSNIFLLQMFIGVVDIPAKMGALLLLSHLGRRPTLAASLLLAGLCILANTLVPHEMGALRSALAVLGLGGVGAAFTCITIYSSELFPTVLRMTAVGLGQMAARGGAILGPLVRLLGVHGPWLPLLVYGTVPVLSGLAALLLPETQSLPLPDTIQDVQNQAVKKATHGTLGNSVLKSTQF
Protocol: 2.1 Construction of a HEK293 stable cell line with high expression of hURAT1: The plasmid pCMV6-hURAT1 was transfected into HEK293 cells, then the stable strain was obtained by the G418 (final concentration 500 μg/mL) resistance screening, which is the high expression of hURAT1 transporter membrane protein.
2.2 To a coated 24-well plate was added 200 μL of 0.1 mg/mL poly-lysine per well and the plate was left overnight. Poly-lysine was removed from wells. The wells were cleaned thoroughly with aseptic water and dried for use.
2.3 To the above coated 24 well plate was added HEK293-hURAT1 stable cells (2×10^5 cells per well). The cells was cultured at 37° C. under 5% CO2 for 3 days.
The solution was fully mixed to give HBSS buffer (pH value: 7.4). The buffer was stored at −20° C.
2.5 The HBSS buffer was warmed to 37° C. in a water bath. Washed cells with HBSS twice, added 160 μL of HBSS and 20 μL test compound per well. The final concentration of tested compound per well is 500 nM. The blank control well contains only 180 μL of HBSS without tested compound. The plate was placed at room temperature for 30 min.
2.6 To each well was added 20 μL of 50 μM ^14C-Uric acid. The plate was placed at room temperature for 20 min.
2.7 The solution in each well was removed and the cells in each well were washed with pre-cooled HBSS buffer. To each well was added 0.2 M NaOH to dissolve the cells. The solution containing cell fragments was collected and the right amount of scintillation liquid was added.
The formula for calculating the inhibitory rate of uric acid transport for compounds was shown as below: […]

[1] = test system: human normal liver cell line L-02; assay: Cytotoxicity test on human normal liver cell line L-02 (Alamar Blue); assay type: cell-based; details: L02, L-02 cells, 120 h incubation, cell viability, read-out: half inhibitory concentration (IC50) against L-02
Protocol: (§1) 2.1 The normal liver cell lines L-02 and WRL-68 were cultured with DMEM culture medium (containing 10% of fetal bovine serum, 100 U/mL of penicillin and 0.1 mg/mL of streptomycin) in an incubator under 5% CO2 at 37° C. until the cell density was about 90%, respectively.
(§2) 2.3 Tested compounds and benzbromarone at different concentration gradients were prepared by using the DMEM culture medium and added into wells at 100 μL/well as compounds wells. The DMEM culture medium was added into wells at 100 μL/well without tested compound as negative control wells.
(§3) This 10× Alamar Blue solution was diluted into 1× Alamar Blue solution with phenol red free DMEM culture medium before use.
(§4) 2.5 The cells were washed with PBS (0.1 M, pH=7.4) twice. The Alamar Blue solution was added into wells at 100 μL/well. 100 μL of Alamar Blue solution was added into wells without cells to serve as blank control wells. The 96-well plate was placed in an incubator under 5% CO2 at 37° C. for 3 h. Each concentration of compound was repeated three times during the test.
(§5) The fluorescence value of the cells containing compound is the F(test compound); the fluorescence value of the cells without compound as blank control is the F(blank control); the fluorescent value of the cells from negative control group is F(negative control). The average value and standard deviation of cell viability of three repeated concentrations was calculated by the following formula: […]
(§6) 2.7 The half inhibitory concentration (IC50) of the compound for the cells L-02 and WRL-68 was obtained from the cell viability by Prism Graph software.

[2] = test system: human normal liver cell line WRL-68; assay: Cytotoxicity test on human normal liver cell line WRL-68 (Alamar Blue); assay type: cell-based; details: WRL68, WRL-68 cells, 120 h incubation, cell viability, read-out: half inhibitory concentration (IC50) against WRL-68
Protocol: as §1, §2, §3, §4, §5, §6

[3] = Acute toxicity of single oral dose in SD rats; details: for Weight gain rate (%): 14 day compared with 0 day
From the text: Rats were randomly divided into group A1, group B1 and blank control group. Each group has 10 of rats with half male and half female.

[4] = female SD rats (n=5), 74 at 5.0 g/kg, BBR at 0.14 g/kg
[5] = male SD rats (n=5), 74 at 5.0 g/kg, BBR at 0.14 g/kg

## CCc1nc2ccccn2c1C(=O)c1cc(Br)c(O)c(C#N)c1 [Compound 74, 3-bromo-5-(2-ethylimidazo[1,2-a]pyridine-3-carbonyl)-2-hydroxybenzonitrile hydrogen chloride]
hURAT1
  Inhibitory rates of uric acid transport, ±SD (%): 62.75 ± 5.73%
[1]
  IC50: > 100 µM
[2]
  IC50: > 100 µM
[3]; SD rats, single oral dose, 74 at 5.0 g/kg, BBR at 0.14 g/kg, 10 rats per group, 14 days observation
  Death rate: 0/10
[3]; [4]
  Weight 0 day (X ± SD): 135.94 ± 5.62 g
  Weight 7 day (X ± SD): 183.02 ± 11.10 g
  Weight 14 day (X ± SD): 208.04 ± 11.90 g
[3]; female SD rats (n=5)
  Weight gain rate (%): +53.0%
[3]; [5]
  Weight 0 day (X ± SD): 149.06 ± 5.95 g
  Weight 7 day (X ± SD): 204.04 ± 21.69 g
  Weight 14 day (X ± SD): 258.12 ± 17.65 g
[3]; male SD rats (n=5)
  Weight gain rate (%): +73.2%
[3]; pre-experiment, compound 74 at 5 g/kg (highest dose), benzbromarone at 0.14 g/kg
  death of rats in pre-experiment of acute toxicity: did not cause death
